Patent publication US8501977B2, “Platinum complex and pharmaceutical composition containing the same” (Unitech Co., Ltd., priority 2008, dated 2013)

Test system: U937 (human lymphoma cell)
Test: MTS cell proliferation test, U937 (Embodiment 7)
Type: cell-based
Conditions: U937; summary of Table 1 in words
Protocol: The test solution was prepared by dissolving the (compound 1) into the dimethylsulfoxide ([…]) with the concentration of 8 mg/ml.
The test was performed by using the U937 (human lymphoma cell) as the cancer cell and using the HEK293 (human fetus kidney cell) as the normal cell.
These cells were suspended in the each culture medium that the serum of 10% was added, and were dispensed in 96-well plate. And then, these were cultured in 5% CO2 at 37 degrees centigrade during a night. Next day, the test solution was prepared in the culture medium to the various concentrations (0, 4, 8, 16 μg/ml), and was dispensed into the plate that the cells were set preliminarily. And further, these were cultured in 5% CO2 at 37 degrees centigrade for three days.
The cell proliferation after the medicine addition was measured on the 3rd day from the 1st day after the medicine addition by the […] (Kit for cell proliferation test manufactured by Promega Company).
The inhibition rate (%) of the cell proliferation was obtained from the measured MTS value by the following formula. Inhibition rate(%)=(1-MTS value of medicine addition group/MTS value of medicine non-addition group)×100
Because the value which was obtained by the above-mentioned formula represents the inhibition rate of the cell proliferation, the higher the numerionl value is, the higher the medicine effect is. It is deemed that the one whose value is 50% or more has the medicine effect.

O=C1[O][Pt]2([NH][C@H]3CCCC34CCC[C@@H]4[NH]2)[O]C1=O (stereo partly drawn) [compound 1, (cis,cis-spiro[4,4]nonane-1,6-diamine) oxalatoplatinum(II) complex]
medicine effect in the cancer cell (U937): remarkable medicine effect
